Test results from the OligoGym collection.
HELM strings list units from the 5' end as sugar, base in round brackets, then linkage (d deoxyribose, r ribose, m 2'-O-methyl, p phosphodiester). Strings are as the collection lists them; they lack the last nucleoside at the 3' end of the tested compound. [moe] = 2'-O-(2-methoxyethyl) (MOE); [sp] = phosphorothioate linkage; [m5C] = 5-methylcytosine

biological target: SCN2A; experiment: mouse, dose not given; conditions: ASO

Substance | 3 h FOB score
RNA1{[moe](T)[sp].[moe](G)p.[moe]([m5C])p.[moe](A)p.[moe](T)p.[moe](A)p.d(A)[sp].d(T)[sp].d([m5C])[sp].d([m5C])[sp].d([m5C])[sp].d(A)[sp].d(T)[sp].d(T)[sp].d(A)[sp].d(T)[sp].[moe](A)p.[moe]([m5C])[sp].[moe](A)}$$$$ (last 3' nucleoside missing) | 0 score 0-7
RNA1{[moe](A)[sp].[moe](T)p.[moe](T)p.[moe](T)p.[moe]([m5C])p.d(T)[sp].d(A)[sp].d(T)[sp].d(A)[sp].d(A)[sp].d([m5C])[sp].d(T)[sp].d([m5C])[sp].d(A)[sp].d(G)[sp].[moe]([m5C])p.[moe](A)p.[moe](A)[sp].[moe]([m5C])}$$$$ (last 3' nucleoside missing) | 0 score 0-7
RNA1{[moe](T)[sp].[moe](A)p.[moe](T)p.[moe](T)p.d(T)[sp].d(T)[sp].d(A)[sp].d(T)[sp].d(A)[sp].d(A)[sp].d(A)[sp].d(T)[sp].d(G)[sp].d([m5C])[sp].[moe]([m5C])p.[moe](G)p.[moe](A)p.[moe]([m5C])[sp].[moe](T)}$$$$ (last 3' nucleoside missing) | 2.67 score 0-7
RNA1{[moe]([m5C])[sp].[moe](A)p.[moe](T)p.[moe](A)p.d(A)[sp].d(T)[sp].d([m5C])[sp].d([m5C])[sp].d([m5C])[sp].d(A)[sp].d(T)[sp].d(T)[sp].d(A)[sp].d(T)[sp].[moe](A)p.[moe]([m5C])p.[moe](A)p.[moe](A)[sp].[moe](A)}$$$$ (last 3' nucleoside missing) | 0 score 0-7
RNA1{[moe]([m5C])[sp].[moe](T)p.[moe](G)p.[moe](G)p.d(A)[sp].d([m5C])[sp].d([m5C])[sp].d(G)[sp].d(T)[sp].d([m5C])[sp].d(T)[sp].d([m5C])[sp].d(T)[sp].d(T)[sp].[moe](T)p.[moe]([m5C])p.[moe](T)p.[moe](T)[sp].[moe](A)}$$$$ (last 3' nucleoside missing) | 1 score 0-7
RNA1{[moe](G)[sp].[moe](A)p.[moe]([m5C])p.[moe]([m5C])p.[moe](G)p.d(A)[sp].d(A)[sp].d(T)[sp].d(T)[sp].d([m5C])[sp].d(T)[sp].d(A)[sp].d(T)[sp].d(T)[sp].d(T)[sp].[moe](T)p.[moe](A)p.[moe](T)[sp].[moe](A)}$$$$ (last 3' nucleoside missing) | 1 score 0-7
RNA1{[moe](A)[sp].[moe](T)p.[moe](G)p.[moe](T)p.[moe](A)p.[moe](A)p.d([m5C])[sp].d([m5C])[sp].d(T)[sp].d(T)[sp].d(T)[sp].d(A)[sp].d(T)[sp].d(A)[sp].d([m5C])[sp].d(A)[sp].[moe](T)p.[moe](T)[sp].[moe](T)}$$$$ (last 3' nucleoside missing) | 0 score 0-7
RNA1{[moe]([m5C])[sp].[moe](T)p.[moe](G)p.[moe](T)p.[moe](T)p.d(T)[sp].d(G)[sp].d(G)[sp].d(G)[sp].d(T)[sp].d([m5C])[sp].d(T)[sp].d([m5C])[sp].d(T)[sp].d(T)[sp].[moe](A)p.[moe](G)p.[moe]([m5C])[sp].[moe](T)}$$$$ (last 3' nucleoside missing) | 2.67 score 0-7
RNA1{[moe](G)[sp].[moe]([m5C])p.[moe](A)p.[moe](T)p.[moe](G)p.[moe](T)p.d(T)[sp].d(T)[sp].d(A)[sp].d(T)[sp].d([m5C])[sp].d(T)[sp].d(T)[sp].d(A)[sp].d(G)[sp].d(T)[sp].[moe](T)p.[moe]([m5C])[sp].[moe](T)}$$$$ (last 3' nucleoside missing) | 1.67 score 0-7
RNA1{[moe](T)[sp].[moe](G)p.[moe]([m5C])p.[moe](A)p.[moe](T)p.d(A)[sp].d(A)[sp].d(T)[sp].d([m5C])[sp].d([m5C])[sp].d([m5C])[sp].d(A)[sp].d(T)[sp].d(T)[sp].d(A)[sp].[moe](T)p.[moe](A)p.[moe]([m5C])[sp].[moe](A)}$$$$ (last 3' nucleoside missing) | 0 score 0-7
RNA1{[moe]([m5C])[sp].[moe](G)p.[moe](A)p.[moe](A)p.[moe](T)p.[moe](T)p.d([m5C])[sp].d(T)[sp].d(A)[sp].d(T)[sp].d(T)[sp].d(T)[sp].d(T)[sp].d(A)[sp].d(T)[sp].d(A)[sp].[moe](A)p.[moe](A)[sp].[moe](T)}$$$$ (last 3' nucleoside missing) | 2.33 score 0-7
RNA1{[moe]([m5C])[sp].[moe](G)p.[moe](A)p.[moe](A)p.d(T)[sp].d(T)[sp].d([m5C])[sp].d(T)[sp].d(A)[sp].d(T)[sp].d(T)[sp].d(T)[sp].d(T)[sp].d(A)[sp].[moe](T)p.[moe](A)p.[moe](A)p.[moe](A)[sp].[moe](T)}$$$$ (last 3' nucleoside missing) | 1 score 0-7
RNA1{[moe]([m5C])[sp].[moe]([m5C])p.[moe](A)p.[moe]([m5C])p.[moe](G)p.[moe]([m5C])p.d(T)[sp].d(T)[sp].d(A)[sp].d([m5C])[sp].d(A)[sp].d(T)[sp].d([m5C])[sp].d(A)[sp].d(A)[sp].d(A)[sp].[moe]([m5C])p.[moe](A)[sp].[moe](T)}$$$$ (last 3' nucleoside missing) | 0 score 0-7
RNA1{[moe](T)[sp].[moe](T)p.[moe](T)p.[moe](G)p.d(G)[sp].d(G)[sp].d([m5C])[sp].d([m5C])[sp].d(A)[sp].d(T)[sp].d(T)[sp].d(T)[sp].d(T)[sp].d([m5C])[sp].[moe](A)p.[moe](T)p.[moe]([m5C])p.[moe](A)[sp].[moe](T)}$$$$ (last 3' nucleoside missing) | 0 score 0-7
RNA1{[moe](A)[sp].[moe](G)p.[moe]([m5C])p.[moe](A)p.d(T)[sp].d(G)[sp].d(T)[sp].d(T)[sp].d(T)[sp].d(A)[sp].d(T)[sp].d([m5C])[sp].d(T)[sp].d(T)[sp].[moe](A)p.[moe](G)p.[moe](T)p.[moe](T)[sp].[moe]([m5C])}$$$$ (last 3' nucleoside missing) | 0 score 0-7
RNA1{[moe](A)[sp].[moe](A)p.[moe](T)p.[moe](T)p.d([m5C])[sp].d(T)[sp].d(A)[sp].d(T)[sp].d(T)[sp].d(T)[sp].d(T)[sp].d(A)[sp].d(T)[sp].d(A)[sp].[moe](A)p.[moe](A)p.[moe](T)p.[moe](G)[sp].[moe]([m5C])}$$$$ (last 3' nucleoside missing) | 0 score 0-7
RNA1{[moe]([m5C])[sp].[moe](A)p.[moe](G)p.[moe]([m5C])p.d(A)[sp].d(T)[sp].d(A)[sp].d(T)[sp].d(T)[sp].d([m5C])[sp].d(T)[sp].d(A)[sp].d(A)[sp].d([m5C])[sp].[moe](A)p.[moe](T)p.[moe](G)p.[moe](G)[sp].[moe](T)}$$$$ (last 3' nucleoside missing) | 0 score 0-7
RNA1{[moe](T)[sp].[moe](G)p.[moe](A)p.[moe]([m5C])p.[moe]([m5C])p.[moe](A)p.d([m5C])[sp].d(G)[sp].d([m5C])[sp].d(T)[sp].d(T)[sp].d(A)[sp].d([m5C])[sp].d(A)[sp].d(T)[sp].d([m5C])[sp].[moe](A)p.[moe](A)[sp].[moe](A)}$$$$ (last 3' nucleoside missing) | 1 score 0-7
RNA1{[moe](A)[sp].[moe](T)p.[moe]([m5C])p.[moe](A)p.[moe]([m5C])p.d(T)[sp].d(T)[sp].d(T)[sp].d([m5C])[sp].d(A)[sp].d(T)[sp].d([m5C])[sp].d([m5C])[sp].d(A)[sp].d([m5C])[sp].[moe](G)p.[moe](A)p.[moe]([m5C])[sp].[moe](A)}$$$$ (last 3' nucleoside missing) | 1 score 0-7
RNA1{[moe]([m5C])[sp].[moe](T)p.[moe](G)p.[moe]([m5C])[sp].d(A)[sp].d(T)[sp].d(G)[sp].d(T)[sp].d(A)[sp].d(A)[sp].d([m5C])[sp].d([m5C])[sp].[moe](T)p.[moe](T)p.[moe](T)p.[moe](A)[sp].[moe](T)}$$$$ (last 3' nucleoside missing) | 1 score 0-7
RNA1{[moe](A)[sp].[moe](G)p.[moe]([m5C])p.[moe](A)p.[moe](T)p.[moe](G)p.d(T)[sp].d(T)[sp].d(T)[sp].d(A)[sp].d(T)[sp].d([m5C])[sp].d(T)[sp].d(T)[sp].d(A)[sp].d(G)[sp].[moe](T)p.[moe](T)[sp].[moe]([m5C])}$$$$ (last 3' nucleoside missing) | 1 score 0-7
RNA1{[moe](G)[sp].[moe](A)p.[moe](A)p.[moe](T)p.[moe](T)p.d([m5C])[sp].d(T)[sp].d(A)[sp].d(T)[sp].d(T)[sp].d(T)[sp].d(T)[sp].d(A)[sp].d(T)[sp].d(A)[sp].[moe](A)p.[moe](A)p.[moe](T)[sp].[moe](G)}$$$$ (last 3' nucleoside missing) | 1 score 0-7
RNA1{[moe](T)[sp].[moe]([m5C])p.[moe](A)p.[moe](T)p.[moe](G)p.[moe]([m5C])p.d(A)[sp].d(T)[sp].d(A)[sp].d(A)[sp].d(T)[sp].d([m5C])[sp].d([m5C])[sp].d([m5C])[sp].d(A)[sp].d(T)[sp].[moe](T)p.[moe](A)[sp].[moe](T)}$$$$ (last 3' nucleoside missing) | 0 score 0-7
RNA1{[moe](T)[sp].[moe](G)p.[moe]([m5C])p.[moe](A)p.[moe](T)p.[moe](G)p.d(T)[sp].d(A)[sp].d(A)[sp].d([m5C])[sp].d([m5C])[sp].d(T)[sp].d(T)[sp].d(T)[sp].d(A)[sp].d(T)[sp].[moe](A)p.[moe]([m5C])[sp].[moe](A)}$$$$ (last 3' nucleoside missing) | 0 score 0-7
RNA1{[moe](G)[sp].[moe](G)p.[moe](A)p.[moe]([m5C])p.d([m5C])[sp].d(G)[sp].d(T)[sp].d([m5C])[sp].d(T)[sp].d([m5C])[sp].d(T)[sp].d(T)[sp].d(T)[sp].d([m5C])[sp].[moe](T)p.[moe](T)p.[moe](A)p.[moe](T)[sp].[moe](T)}$$$$ (last 3' nucleoside missing) | 1 score 0-7
RNA1{[moe](G)[sp].[moe]([m5C])p.[moe](A)p.[moe](T)p.d(A)[sp].d(T)[sp].d(T)[sp].d([m5C])[sp].d(T)[sp].d(A)[sp].d(A)[sp].d([m5C])[sp].d(A)[sp].d(T)[sp].[moe](G)p.[moe](G)p.[moe](T)p.[moe]([m5C])[sp].[moe](T)}$$$$ (last 3' nucleoside missing) | 1.67 score 0-7
